Test results as given in paper PMC8962382, “Identification of Novel Mitochondrial Pyruvate Carrier Inhibitors by Homology Modeling and Pharmacophore-Based Virtual Screening” (Biomedicines, 2022).
Numbering of substitutions follows the chain as printed. Read-outs that look alike come from different tables or passages of the source.

Tests used:
[1] = target: T1, mitochondrial pyruvate carrier (MPC) (Mus musculus, UniProt P63030+Q9D023); assay: Inhibition of pyruvate-stimulated respiration (OCR) of isolated heart mitochondria; assay type: biochemical, mice; settings: for IC50: Table 1, inhibiting mitochondrial pyruvate respiration, isolated heart mitochondria
T1 construct: 50 µg of mitochondrial protein was added to the chambers of an Oxygraph O2K; from tissue; host or cells: heart mitochondria of C57Bl/6J mice
T1 sequence (P63030 2-109 limits assumed): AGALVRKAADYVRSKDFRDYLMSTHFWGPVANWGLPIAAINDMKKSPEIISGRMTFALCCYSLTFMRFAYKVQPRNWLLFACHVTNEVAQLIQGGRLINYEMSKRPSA
T1 sequence (Q9D023 1-127): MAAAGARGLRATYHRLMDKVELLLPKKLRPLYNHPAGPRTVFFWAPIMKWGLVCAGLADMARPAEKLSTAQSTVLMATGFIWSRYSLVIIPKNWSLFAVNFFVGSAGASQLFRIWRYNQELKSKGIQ
Procedure: Hearts were removed from mice after CO2 asphyxiation and homogenized in buffer containing 250 mM sucrose, 10 mM Tris base, and 1 mM EDTA (pH = 7.4) by 8–10 passes of a glass-on-glass Dounce homogenizer on ice. Homogenates were centrifuged at 1000× g for 5 min at 4 °C to pellet nuclei and undisrupted cells. The supernatants were then centrifuged at 10,000× g for 10 min at 4 °C to enrich for mitochondria; this mitochondrial pellet was washed and re-pelleted twice in fresh sucrose/tris buffer. The mitochondrial pellet was then solubilized in ~150 μL of Mir05 respiration buffer (0.5 mM EGTA, 3 mM MgCl2, 60 mM lactobionic acid, 20 mM taurine, 10 mM KH2PO4, 20 mM HEPES, 110 mM sucrose and 1 g/L of fatty acid free bovine serum albumin; pH 7.1). Mitochondrial protein content was then measured by BCA; 50 µg of mitochondrial protein was added to the chambers of an Oxygraph O2K (Oroboros Instruments), with a total volume of 2 mL Mir05 buffer set to 37 °C. Respiration was stimulated with 5 mM pyruvate/2 mM malate and 2 mM ADP. After obtaining steady state respiration measurements, compounds were added to the chamber at the indicated concentrations. Then, 5 mM succinate was added to determine inhibitor specificity towards pyruvate-stimulated respiration. Steady-state rates of oxygen consumption were assessed for 1–2 min before addition of subsequent substrate or inhibitor. Oxygen consumption rates (OCR) were calculated from the change in oxygen concentration over time and normalized to 50 µg of mitochondria within the chamber.

[2] = target: T2, Human MPC1 and MPC2 (WT MPC BRET constructs) (Homo sapiens, UniProt O95563+Q9Y5U8); assay: BRET-based MPC reporter assay in U2OS cells (MPC1-mCherry / MPC2-NLuc); assay type: cell-based; settings: for BRET activity: test compounds dosed at 10 μM, U2OS cells, WT MPC BRET constructs; for BRET assay activation: WT MPC
T2 construct: expressed in transfected cells; host or cells: U2OS cells, transient transfection
T2 sequence (Q9Y5U8 2-109 limits assumed): T1 sequence (P63030 2-109 limits assumed) with V84A, N99K, Y100H, S103T, R105T, P106A
T2 sequence (O95563 1-127): T1 sequence (Q9D023 1-127) with A2S, M17L, L23M, K26E, T73A, S105A, S123A, G125A, I126H, Q127K
Procedure: Based on the success of a previously described MPC BRET reporter assay, we developed our own BRET assay using more recently adopted BRET donor and acceptor pairs. In this assay, Nanoluciferase is used as the BRET donor, and mCherry fluorescent protein is used as the BRET acceptor. Human MPC1 and MPC2 cDNA constructs with stop codon removed for C-terminal tagging were obtained from the Harvard PlasmID repository. […] Site-directed mutagenesis (Agilent) was then performed to delete linking regions between the MPC proteins and C-terminal tags.
For BRET assays, U2OS cells were transiently transfected with MPC1-mCherry and MPC2-NLuc constructs and, 24 h later, plated onto 9 columns of a clear-bottom white 96-well plate at 10,000 cells/well. As a BRET control, some cells were transfected with MPC2-NLuc only, and these cells plated on the remaining 3 columns of the 96-well plate at 10,000 cells/well. The following day, cells were washed with PBS and starved in phenol red-, glucose-, and pyruvate-free Dulbecco’s Modified Eagle’s Medium (DMEM) for 3 h. Cells were then washed in PBS and then provided PBS with 1 mM CaCl2 and 0.5 mM MgCl2 plus 2 μg/mL coelenterazine h BRET substrate, a white sticker applied to the bottom of the plate, and the plate immediately placed into a BioTek Synergy plate reader. […] After several baseline readings, the plate was ejected, and test substrates/compounds were manually pipetted into the wells. […] All data was then normalized to the values immediately prior to compound injection. Data were either reported as curves over time or average normalized BRET of the several readings immediately after compound injections. For testing pyruvate/inhibitor-binding residues, point mutations were made in MPC1 or MPC2 constructs by site-directed mutagenesis (Agilent); BRET assays were performed the same as above. All of these assays contained 96-well plates directly comparing cells expressing WT MPC and mutant BRET constructs.

MPC1-F66A or MPC2-K49A = assay: BRET-based MPC reporter assay with mutant MPC constructs; assay type: cell-based, Human; settings: magnitude much less than in WT-expressing cells
Procedure: For BRET assays, U2OS cells were transiently transfected with MPC1-mCherry and MPC2-NLuc constructs and, 24 h later, plated onto 9 columns of a clear-bottom white 96-well plate at 10,000 cells/well. As a BRET control, some cells were transfected with MPC2-NLuc only, and these cells plated on the remaining 3 columns of the 96-well plate at 10,000 cells/well. The following day, cells were washed with PBS and starved in phenol red-, glucose-, and pyruvate-free Dulbecco’s Modified Eagle’s Medium (DMEM) for 3 h. Cells were then washed in PBS and then provided PBS with 1 mM CaCl2 and 0.5 mM MgCl2 plus 2 μg/mL coelenterazine h BRET substrate, a white sticker applied to the bottom of the plate, and the plate immediately placed into a BioTek Synergy plate reader. Luminescence was then read repeatedly from the top of the plate at emission wavelengths of 485/20 nm and 640/40 nm for NLuc and mCherry signals, respectively. After several baseline readings, the plate was ejected, and test substrates/compounds were manually pipetted into the wells. […] To calculate BRET activity, at each reading interval, the luminescence of 620 nm emission wavelength was divided by the 485 nm emission wavelength, and the values from the MPC2-Nluc-only expressing cells were subtracted from the cells expressing both constructs. […]

Structure (SMILES): CCOC(=O)/C(C#N)=C/c1c[nH]nc1C(C)(C)C [BE1988]
- IC50 [1]: inactive

Structure (SMILES): N#C/C(=C\c1n[nH]cc1-c1ccccc1)C(=O)O [BE2617, (E)-2-Cyano-3-(4-Phenyl-3-Pyrazolyl)acrylic Acid]
- IC50 ([1]; read-out: IC50): 39 nM
- fold more potent than UK-5099 ([1]; ratio of IC50 values): 6 fold
- BRET activity [2]: showed activity

Structure (SMILES): O=C(NC(Cc1c[nH]c2ccccc12)C(=O)O)C1CC1 (stereo not shown) [BE1975]
- MPC inhibitory activity ([1]; SAR statement): abolished activity
- IC50 [1]: inactive

Structure (SMILES): Cc1ccc(-c2c[nH]nc2/C=C(\C#N)C(=O)O)cc1 [BE2623, (E)-2-Cyano-3-[4-(p-Tolyl)-3-Pyrazolyl]acrylic Acid]
- IC50 ([1]; read-out: IC50): 731 nM
- fold less potent than UK-5099 ([1]; inhibiting the respiration): 3 fold
- fold less potent than BE2617 ([1]; ratio of IC50 values): more than 18 fold
- BRET activity [2]: showed activity

Structure (SMILES): CC(=O)C(=O)O [pyruvate]
- BRET assay activation ([2]; 5 mM pyruvate vs DMSO vehicle): activated

Structure (SMILES): N#C/C(=C\c1cn(-c2ccccc2)c2ccccc12)C(=O)O [UK-5099, reference compound]
- BRET activity in mutants (MPC1-F66A or MPC2-K49A): small, but significant, activation of BRET activity
- IC50 ([1]; read-out: IC50): 241 nM
- BRET assay activation ([2]; 5 μM UK-5099 vs DMSO vehicle): activated

Structure (SMILES): COc1cccc(C(=O)COc2ccc(CC3SC(=O)[N-]C3=O)cc2)c1.[K+] (stereo not shown) [MSDC-0602K, reference compound]
- BRET activity in mutants (MPC1-F66A or MPC2-K49A): small, but significant, activation of BRET activity
- BRET assay activation ([2]; 10 μM MSDC-0602K vs DMSO vehicle): activated

Structure (SMILES): Cc1nn(-c2ccccc2)c(C)c1/C=C(\C#N)C(=O)O [BE1980, (E)-2-Cyano-3-(3,5-Dimethyl-1-Phenyl-4-Pyrazolyl)acrylic Acid]
- IC50 ([1]; read-out: IC50): 162 nM
- BRET activity [2]: increased BRET activity

Structure (SMILES): N#C/C(=C\c1c[nH]nc1-c1cccc(Br)c1)C(=O)O [BE1985]
- IC50 ([1]; read-out: IC50): 638 nM
- fold less potent than BE1978 ([1]; ratio of IC50 values): 5 fold
- fold less potent than BE1980 ([1]; ratio of IC50 values): 4 fold
- BRET activity [2]: increased BRET activity
